Laboratory results from patent US6638973B2, “Taxane formulations” (FSU Research Foundation, Inc., priority 2000, dated 2003).
Where two headings read alike, the source gives them in different places.

Tested on: HCT116 cells
Experiment: In vitro cytotoxicity measured by the cell colony formation assay
Type: cell-based
Conditions: colonies counted after 7 days, read-out: IN VITRO ID 50 (nm) HCT116
Outline: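 Colony-forming survival was scored 7 days after a 72 h, 37 °C compound exposure followed by washout into fresh medium.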

[1] = HCT116 colony formation, 72 h drug incubation, Example 5, C-7 ester/C-10 hydroxy taxanes
[2] = HCT116 colony formation, 72 h drug incubation, Example 10, C-10 ester/C-7 hydroxy taxanes
[3] = HCT116 cells, 72 h incubation with drug, ID50 = drug concentration producing 50% inhibition of colony formation

SMILES | IC50 [2] | IC50 [3] | also measured
C/C=C/C(=O)N[C@@H](c1ccsc1)[C@@H](O)C(=O)O[C@H]1C[C@@]2(O)[C@@H](OC(=O)c3ccccc3)C3[C@](C)(C(=O)[C@H](O)C(=C1C)C2(C)C)[C@@H](OC(=O)CC)C[C@H]1OC[C@@]31OC(C)=O (some centres unmarked) [Compound 5020] |  |  | IC50 [1]: < 1 nM
CC(=O)O[C@@]12CO[C@@H]1C[C@H](O)[C@@]1(C)C(=O)[C@H](OC(=O)C3CC3)C3=C(C)[C@@H](OC(=O)[C@H](O)[C@@H](NC(=O)c4ccco4)c4ccco4)C[C@@](O)([C@@H](OC(=O)c4ccccc4)C12)C3(C)C (some centres unmarked) [Compound 3866] | < 1 nM |  | 
CCC(=O)O[C@H]1C(=O)[C@@]2(C)C([C@H](OC(=O)c3ccccc3)[C@]3(O)C[C@H](OC(=O)[C@H](O)[C@@H](NC(=O)c4ccccc4)C(C)C)C(C)=C1C3(C)C)[C@]1(OC(C)=O)CO[C@@H]1C[C@@H]2O (some centres unmarked) [Compound 0719] | < 10 nM |  | 
CC(=O)O[C@@]12CO[C@@H]1C[C@H](O)[C@@]1(C)C(=O)[C@H](OC(=O)C=C(C)C)C3=C(C)[C@@H](OC(=O)[C@H](O)[C@H](C=C(C)C)NC(=O)OC(C)(C)C)C[C@@](O)([C@@H](OC(=O)c4ccccc4)C12)C3(C)C (some centres unmarked) [Compound 2455] | < 10 nM |  | 
C/C=C/C(=O)N[C@@H](c1cccs1)[C@@H](O)C(=O)O[C@H]1C[C@@]2(O)[C@@H](OC(=O)c3ccccc3)C3[C@](C)(C(=O)[C@H](O)C(=C1C)C2(C)C)[C@@H](OC(=O)OCc1ccccc1)C[C@H]1OC[C@@]31OC(C)=O (some centres unmarked) [Compound 6566] |  | < 10 nM | 
CCC(=O)O[C@H]1C[C@H]2OC[C@@]2(OC(C)=O)C2[C@H](OC(=O)c3ccccc3)[C@]3(O)C[C@H](OC(=O)[C@H](O)[C@@H](NC(=O)c4ccccc4)c4ccsc4)C(C)=C([C@@H](O)C(=O)[C@@]21C)C3(C)C (some centres unmarked) [Compound 3388] |  |  | IC50 [1]: < 10 nM
C/C=C/C(=O)N[C@@H](c1ccoc1)[C@@H](O)C(=O)O[C@H]1C[C@@]2(O)[C@@H](OC(=O)c3ccccc3)C3[C@](C)(C(=O)[C@H](O)C(=C1C)C2(C)C)[C@@H](OC(=O)OCC)C[C@H]1OC[C@@]31OC(C)=O (some centres unmarked) [Compound 4904] |  | < 10 nM | 
CC(=O)OC12COC1CC(O)C1(C)C(=O)C(OC(=O)C(C)C)C3=C(C)C(OC(=O)C(O)C(NC(=O)OC(C)(C)C)c4ccccn4)CC(O)(C(OC(=O)c4ccccc4)C21)C3(C)C (centres unmarked) [Compound 2238] | < 1 nM |  | 
C/C=C/C(=O)N[C@@H](c1ccsc1)[C@@H](O)C(=O)O[C@H]1C[C@@]2(O)[C@@H](OC(=O)c3ccccc3)C3[C@](C)(C(=O)[C@H](O)C(=C1C)C2(C)C)[C@@H](OC(=O)CCC)C[C@H]1OC[C@@]31OC(C)=O (some centres unmarked) [Compound 5030] |  |  | IC50 [1]: < 1 nM
CCC(=O)O[C@H]1C(=O)[C@@]2(C)C([C@H](OC(=O)c3ccccc3)[C@]3(O)C[C@H](OC(=O)[C@H](O)[C@@H](NC(=O)c4ccccc4)c4ccncc4)C(C)=C1C3(C)C)[C@]1(OC(C)=O)CO[C@@H]1C[C@@H]2O (some centres unmarked) [Compound 0659] | < 1 nM |  | 
C/C=C/C(=O)O[C@H]1C(=O)[C@@]2(C)C([C@H](OC(=O)c3ccccc3)[C@]3(O)C[C@H](OC(=O)[C@H](O)[C@@H](NC(=O)OC(C)(C)C)C(C)C)C(C)=C1C3(C)C)[C@]1(OC(C)=O)CO[C@@H]1C[C@@H]2O (some centres unmarked) [Compound 2413] | < 10 nM |  | 
CCC(=O)O[C@H]1C(=O)[C@@]2(C)C([C@H](OC(=O)c3ccccc3)[C@]3(O)C[C@H](OC(=O)[C@H](O)[C@@H](NC(=O)C=C(C)C)c4cccs4)C(C)=C1C3(C)C)[C@]1(OC(C)=O)CO[C@@H]1C[C@@H]2O (some centres unmarked) [Compound 4335] | < 1 nM |  | 
CC(=O)O[C@@]12CO[C@@H]1C[C@H](OC(=O)C(C)C)[C@@]1(C)C(=O)[C@H](O)C3=C(C)[C@@H](OC(=O)[C@H](O)[C@@H](NC(=O)OC=C(C)C)c4ccco4)C[C@@](O)([C@@H](OC(=O)c4ccccc4)C12)C3(C)C (some centres unmarked) [Compound 5989] |  |  | IC50 [1]: < 10 nM
CCOC(=O)O[C@H]1C(=O)[C@@]2(C)C([C@H](OC(=O)c3ccccc3)[C@]3(O)C[C@H](OC(=O)[C@H](O)[C@@H](NC(=O)c4ccco4)c4ccco4)C(C)=C1C3(C)C)[C@]1(OC(C)=O)CO[C@@H]1C[C@@H]2O (some centres unmarked) [Compound 3911] |  | < 1 nM | 
COC(=O)O[C@H]1C(=O)[C@@]2(C)C([C@H](OC(=O)c3ccccc3)[C@]3(O)C[C@H](OC(=O)[C@H](O)[C@@H](NC(=O)OC(C)(C)C)c4ccsc4)C(C)=C1C3(C)C)[C@]1(OC(C)=O)CO[C@@H]1C[C@@H]2O (some centres unmarked) [Compound 2050] |  | < 1 nM | 
CC(=O)OC12COC1CC(O)C1(C)C(=O)C(OC(=O)c3ccco3)C3=C(C)C(OC(=O)C(O)C(C=C(C)C)NC(=O)OC(C)(C)C)CC(O)(C(OC(=O)c4ccccc4)C21)C3(C)C (centres unmarked) [Compound 2101] | < 1 nM |  | 
CCCC(=O)O[C@H]1C[C@H]2OC[C@@]2(OC(C)=O)C2[C@H](OC(=O)c3ccccc3)[C@]3(O)C[C@H](OC(=O)[C@H](O)[C@@H](NC(=O)OC(C)(C)C)C4CC4)C(C)=C([C@@H](O)C(=O)[C@@]21C)C3(C)C (some centres unmarked) [Compound 5080] |  |  | IC50 [1]: < 1 nM
COC(=O)O[C@H]1C[C@H]2OC[C@@]2(OC(C)=O)C2[C@H](OC(=O)c3ccccc3)[C@]3(O)C[C@H](OC(=O)[C@H](O)[C@@H](NC(=O)OC(C)(C)C)c4ccco4)C(C)=C([C@@H](O)C(=O)[C@@]21C)C3(C)C (some centres unmarked) [Compound 4533] |  | < 1 nM | 

SMILES | IC50 [2] | IC50 [3] | also measured
CCOC(=O)O[C@H]1C(=O)[C@@]2(C)C([C@H](OC(=O)c3ccccc3)[C@]3(O)C[C@H](OC(=O)[C@H](O)[C@@H](NC(=O)OC(C)(C)C)c4ccc([N+](=O)[O-])cc4)C(C)=C1C3(C)C)[C@]1(OC(C)=O)CO[C@@H]1C[C@@H]2O (some centres unmarked) [Compound 1866] |  | < 1 nM | 
COC(=O)O[C@H]1C[C@H]2OC[C@@]2(OC(C)=O)C2[C@H](OC(=O)c3ccccc3)[C@]3(O)C[C@H](OC(=O)[C@H](O)[C@@H](NC(=O)OCC(C)C)C4CC4)C(C)=C([C@@H](O)C(=O)[C@@]21C)C3(C)C (some centres unmarked) [Compound 5211] |  | < 10 nM | 
CCOC(=O)O[C@H]1C(=O)[C@@]2(C)C([C@H](OC(=O)c3ccccc3)[C@]3(O)C[C@H](OC(=O)[C@H](O)[C@@H](NC(=O)OCC(C)C)C4CC4)C(C)=C1C3(C)C)[C@]1(OC(C)=O)CO[C@@H]1C[C@@H]2O (some centres unmarked) [Compound 4844] |  | < 1 nM | 
CCCC(=O)O[C@H]1C[C@H]2OC[C@@]2(OC(C)=O)C2[C@H](OC(=O)c3ccccc3)[C@]3(O)C[C@H](OC(=O)[C@H](O)[C@@H](NC(=O)c4cccs4)c4cccs4)C(C)=C([C@@H](O)C(=O)[C@@]21C)C3(C)C (some centres unmarked) [Compound 4388] |  |  | IC50 [1]: < 1 nM
CC(=O)O[C@@]12CO[C@@H]1C[C@H](O)[C@@]1(C)C(=O)[C@H](OC(=O)C(C)C)C3=C(C)[C@@H](OC(=O)[C@H](O)[C@@H](NC(=O)OC(C)(C)C)c4ccco4)C[C@@](O)([C@@H](OC(=O)c4ccccc4)C12)C3(C)C (some centres unmarked) [Compound 2269] | < 1 nM |  | 
CC(=O)O[C@@]12CO[C@@H]1C[C@H](O)[C@@]1(C)C(=O)[C@H](OC(=O)C3CC3)C3=C(C)[C@@H](OC(=O)[C@H](O)[C@@H](NC(=O)c4ccccc4)c4ccco4)C[C@@](O)([C@@H](OC(=O)c4ccccc4)C12)C3(C)C (some centres unmarked) [Compound 0908] | < 1 nM |  | 
CCC(=O)O[C@H]1C(=O)[C@@]2(C)C([C@H](OC(=O)c3ccccc3)[C@]3(O)C[C@H](OC(=O)[C@H](O)[C@@H](NC(=O)OC(C)C)c4cccs4)C(C)=C1C3(C)C)[C@]1(OC(C)=O)CO[C@@H]1C[C@@H]2O (some centres unmarked) [Compound 3361] | < 1 nM |  | 
C/C=C/C(=O)N[C@@H](c1cccs1)[C@@H](O)C(=O)O[C@H]1C[C@@]2(O)[C@@H](OC(=O)c3ccccc3)C3[C@](C)(C(=O)[C@H](O)C(=C1C)C2(C)C)[C@@H](OC(=O)CCC)C[C@H]1OC[C@@]31OC(C)=O (some centres unmarked) [Compound 4757] |  |  | IC50 [1]: < 1 nM
CCCC(=O)N[C@@H](c1ccco1)[C@@H](O)C(=O)O[C@H]1C[C@@]2(O)[C@@H](OC(=O)c3ccccc3)C3[C@](C)(C(=O)[C@H](OC(=O)OCC)C(=C1C)C2(C)C)[C@@H](O)C[C@H]1OC[C@@]31OC(C)=O (some centres unmarked) [Compound 3929] |  | < 1 nM | 
CCOC(=O)N[C@@H](c1ccco1)[C@@H](O)C(=O)O[C@H]1C[C@@]2(O)[C@@H](OC(=O)c3ccccc3)C3[C@](C)(C(=O)[C@H](OC(=O)OCC)C(=C1C)C2(C)C)[C@@H](O)C[C@H]1OC[C@@]31OC(C)=O (some centres unmarked) [Compound 4020] |  | < 1 nM | 
CCC(=O)O[C@H]1C(=O)[C@@]2(C)C([C@H](OC(=O)c3ccccc3)[C@]3(O)C[C@H](OC(=O)[C@H](O)[C@@H](NC(=O)OCC(C)C)c4ccsc4)C(C)=C1C3(C)C)[C@]1(OC(C)=O)CO[C@@H]1C[C@@H]2O (some centres unmarked) [Compound 4711] | < 10 nM |  | 
CCCC(=O)O[C@H]1C[C@H]2OC[C@@]2(OC(C)=O)C2[C@H](OC(=O)c3ccccc3)[C@]3(O)C[C@H](OC(=O)[C@H](O)[C@@H](NC(=O)OC(C)(C)CC)c4ccco4)C(C)=C([C@@H](O)C(=O)[C@@]21C)C3(C)C (some centres unmarked) [Compound 6272] |  |  | IC50 [1]: < 1 nM
CCOC(=O)O[C@H]1C(=O)[C@@]2(C)C([C@H](OC(=O)c3ccccc3)[C@]3(O)C[C@H](OC(=O)[C@H](O)[C@@H](NC(=O)C(C)C)c4ccco4)C(C)=C1C3(C)C)[C@]1(OC(C)=O)CO[C@@H]1C[C@@H]2O (some centres unmarked) [Compound 6466] |  | < 10 nM | 
CCC(=O)O[C@H]1C(=O)[C@@]2(C)C([C@H](OC(=O)c3ccccc3)[C@]3(O)C[C@H](OC(=O)[C@H](O)[C@@H](NC(=O)OC(C)(C)C)c4ccoc4)C(C)=C1C3(C)C)[C@]1(OC(C)=O)CO[C@@H]1C[C@@H]2O (some centres unmarked) [Compound 5495] | < 1 nM |  | 
CCCC(=O)O[C@H]1C(=O)[C@@]2(C)C([C@H](OC(=O)c3ccccc3)[C@]3(O)C[C@H](OC(=O)[C@H](O)[C@@H](NC(=O)c4cccnc4)c4cccs4)C(C)=C1C3(C)C)[C@]1(OC(C)=O)CO[C@@H]1C[C@@H]2O (some centres unmarked) [Compound 4190] | < 10 nM |  | 
CCCC(=O)O[C@H]1C(=O)[C@@]2(C)C([C@H](OC(=O)c3ccccc3)[C@]3(O)C[C@H](OC(=O)[C@H](O)[C@@H](NC(=O)c4ccco4)c4ccco4)C(C)=C1C3(C)C)[C@]1(OC(C)=O)CO[C@@H]1C[C@@H]2O (some centres unmarked) [Compound 3686] | < 1 nM |  | 
CC(=O)OC12COC1CC(O)C1(C)C(=O)C(OC(=O)c3cccs3)C3=C(C)C(OC(=O)C(O)C(NC(=O)OC(C)(C)C)c4cccnc4)CC(O)(C(OC(=O)c4ccccc4)C21)C3(C)C (centres unmarked) [Compound 1948] | < 10 nM |  | 
